Like-named read-outs stand apart in the source and are kept apart here.
Legend:
[1] = molecular target: succinate-cytochrome c reductase (complexes II to III) (Echinococcus multilocularis, UniProt Q9TE80); experiment: Succinate:cytochrome c reductase activity (complexes II to III); assay type: biochemical; conditions: read-out: IC50 against succinate-cytochrome c reductase
Protocol: (§1) NADH:quinone reductase activity (complex I), succinate:quinone reductase activity (complex II), and succinate:cytochrome c reductase activity (complexes II to III) were measured using a UV-3000 spectrophotometer (Shimadzu, Kyoto, Japan) as described previously ([4], [6]). Briefly, all enzyme assays using mitochondrial fractions were performed in 0.5- or 1.0-mL reaction mixtures at 25°C. A freeze/thaw process was performed before the assay to ensure that the mitochondrial membrane was permeable to the solutes. The final mitochondrial protein concentration was 50 μg/mL. NADH:quinone reductase activity was measured in 50 mM potassium phosphate buffer (pH 7.4) containing 2 mM potassium cyanide, KCN (Sigma, St. Louis, MO, USA), and 60 μM decylubiquinone (Sigma). The activity assay was started by the addition of 50 μM NADH (Fujifilm-Wako, Tokyo, Japan) and recorded as the rate of NADH consumption as monitored at 340 nm (ε = 6.2 mM^−1 cm^−1). […] SQR activity was determined by monitoring the change in absorbance of quinone at 278 nm (ε = 15 mM^−1 cm^−1) in the presence of 60 μM decylubiquinone, 2 mM KCN, and the inhibitor. […] NADH:cytochrome c activity (complex I to III) was measured in the reaction buffer (30 mM potassium phosphate, 1 mM MgCl2, pH 7.5) containing 2 mM KCN, 50 μM cytochrome c (Nacalai Tesque, Kyoto, Japan), and the inhibitor. […]

[2] = molecular target: complex II (succinate:quinone reductase, SQR) (Echinococcus multilocularis, UniProt A0A1Z4EAW8+A0A1Z4EAX0+A0A1Z4EAX1); experiment: Succinate:quinone reductase (SQR) activity (complex II) in protoscoleces mitochondrial fraction; assay type: biochemical
Chain of complex II (succinate:quinone reductase, SQR) (A0A1Z4EAV8 entry or part of it): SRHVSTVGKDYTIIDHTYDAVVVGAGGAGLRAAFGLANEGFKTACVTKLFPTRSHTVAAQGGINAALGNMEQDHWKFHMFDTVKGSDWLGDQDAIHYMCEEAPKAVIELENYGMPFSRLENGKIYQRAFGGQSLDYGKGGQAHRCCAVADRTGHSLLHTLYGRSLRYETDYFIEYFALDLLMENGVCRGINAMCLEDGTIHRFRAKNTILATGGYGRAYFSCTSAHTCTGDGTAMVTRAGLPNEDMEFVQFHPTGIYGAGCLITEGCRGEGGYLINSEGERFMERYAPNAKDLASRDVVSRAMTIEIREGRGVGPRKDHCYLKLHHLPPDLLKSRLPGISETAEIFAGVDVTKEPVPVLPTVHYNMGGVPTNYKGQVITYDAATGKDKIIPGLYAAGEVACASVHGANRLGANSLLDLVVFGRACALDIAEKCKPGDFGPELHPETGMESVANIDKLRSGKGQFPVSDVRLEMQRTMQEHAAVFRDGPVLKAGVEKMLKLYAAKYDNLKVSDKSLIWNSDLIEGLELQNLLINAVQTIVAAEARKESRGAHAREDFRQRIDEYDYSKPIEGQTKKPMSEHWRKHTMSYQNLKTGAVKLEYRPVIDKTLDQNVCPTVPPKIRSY
Chain of complex II (succinate:quinone reductase, SQR) (A0A1Z4EAX1 entry or part of it): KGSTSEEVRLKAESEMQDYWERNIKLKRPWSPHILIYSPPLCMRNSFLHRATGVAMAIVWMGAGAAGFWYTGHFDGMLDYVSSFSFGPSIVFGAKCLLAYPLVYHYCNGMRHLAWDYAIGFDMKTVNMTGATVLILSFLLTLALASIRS
Chain of complex II (succinate:quinone reductase, SQR) (A0A1Z4EAX0 entry or part of it): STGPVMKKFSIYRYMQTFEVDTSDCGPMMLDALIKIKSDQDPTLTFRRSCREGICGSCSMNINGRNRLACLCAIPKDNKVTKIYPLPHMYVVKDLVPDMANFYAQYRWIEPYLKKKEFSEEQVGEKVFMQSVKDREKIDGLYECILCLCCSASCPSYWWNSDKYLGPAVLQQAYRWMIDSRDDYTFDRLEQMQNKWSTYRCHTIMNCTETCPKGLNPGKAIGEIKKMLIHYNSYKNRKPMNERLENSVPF
Chain of complex II (succinate:quinone reductase, SQR) (A0A1Z4EAW8 entry or part of it): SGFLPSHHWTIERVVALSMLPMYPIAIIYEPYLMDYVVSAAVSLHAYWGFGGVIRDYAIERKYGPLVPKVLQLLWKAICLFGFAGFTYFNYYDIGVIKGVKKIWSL
Text: (§2) Cyst tissues containing E. multilocularis (Nemuro strain) protoscoleces isolated from infected hispid cotton rats, Sigmodon hispidus, were used. The tissues were shredded through a metal mesh (0.5 mm diameter). Then, the tissues were repeatedly suspended and washed with physiological saline in a tall beaker to obtain protoscoleces by exploiting the buoyancy difference between protoscoleces and other tissue ([26]). The obtained protoscoleces were homogenized with a motor-driven homogenizer to prepare the mitochondrial fraction. The homogenate was diluted with mitochondrial preparation buffer (210 mM mannitol, 10 mM sucrose, 1 mM disodium EDTA, and 50 mM Tris-HCl [pH 7.5]) supplemented with 10 mM sodium malonate to 5 times the volume of the original protoscolex homogenate, and then centrifuged at 800 × g for 10 min (4°C) to remove cell debris and nuclei. The supernatant was then centrifuged at 8,000 × g for 10 min (4°C) to obtain the mitochondrial pellet. Next, the pellet was resuspended in mitochondrial preparation buffer (without malonate) and centrifuged at 8,000 × g for 10 min (4°C). The enriched mitochondrial fraction was finally suspended in approximately 0.5 to 1.0 mL of mitochondrial preparation buffer without malonate and frozen at −50°C. The mitochondrial fraction from A. suum was prepared essentially as described previously ([27], [28]).
(§3) NADH:quinone reductase activity (complex I), succinate:quinone reductase activity (complex II), and succinate:cytochrome c reductase activity (complexes II to III) were measured using a UV-3000 spectrophotometer (Shimadzu, Kyoto, Japan) as described previously ([4], [6]). Briefly, all enzyme assays using mitochondrial fractions were performed in 0.5- or 1.0-mL reaction mixtures at 25°C. A freeze/thaw process was performed before the assay to ensure that the mitochondrial membrane was permeable to the solutes. The final mitochondrial protein concentration was 50 μg/mL. NADH:quinone reductase activity was measured in 50 mM potassium phosphate buffer (pH 7.4) containing 2 mM potassium cyanide, KCN (Sigma, St. Louis, MO, USA), and 60 μM decylubiquinone (Sigma). The activity assay was started by the addition of 50 μM NADH (Fujifilm-Wako, Tokyo, Japan) and recorded as the rate of NADH consumption as monitored at 340 nm (ε = 6.2 mM^−1 cm^−1). The reagents used in the SQR activity assay were mixed with the reaction buffer containing 50 mM potassium phosphate (pH 7.4) and 0.1% (wt/vol) sucrose monolaurate (DOJINDO, Kumamoto, Japan). SQR activity was determined by monitoring the change in absorbance of quinone at 278 nm (ε = 15 mM^−1 cm^−1) in the presence of 60 μM decylubiquinone, 2 mM KCN, and the inhibitor. The reaction was initiated by the addition of 10 mM disodium succinate to the mixture. NADH:cytochrome c activity (complex I to III) was measured in the reaction buffer (30 mM potassium phosphate, 1 mM MgCl2, pH 7.5) containing 2 mM KCN, 50 μM cytochrome c (Nacalai Tesque, Kyoto, Japan), and the inhibitor. The assay was performed after the addition of 100 mM malonate to block complex II activity. The reaction was started by adding 50 μM NADH to the mixture, and the enzyme activity was determined by monitoring the change in absorbance of cytochrome c at 550 nm (ε = 19 mM^−1 cm^−1). IC50 values of AF and its derivatives against the specific activities of mitochondrial respiratory enzymes in protoscoleces were determined. The IC50 of each compound was determined by calculating approximation lines from three or more points on either side of the IC50 concentration.

[3] = molecular target: complex I (NADH:quinone reductase) (Echinococcus multilocularis, UniProt A0A068Y553+A0A068Y9L9+Q9TE76); experiment: NADH:quinone reductase activity (complex I) in protoscoleces mitochondrial fraction; assay type: biochemical; conditions: E. multilocularis protoscoleces mitochondria; read-out: IC50 NADH:decyl rhodoquinone reductase (complex I)
Text: as §2
as §3, with “Louis, MO, USA), and 60 μM decylubiquinone (Sigma).” left out, “SQR activity was determined by monitoring the change in absorbance of quinone at 278 nm (ε = 15 mM^−1 cm^−1) in the presence of 60 μM decylubiquinone, 2 mM KCN, and the inhibitor.” left out

A. suum complex II = molecular target: T1, A. suum complex II (Ascaris suum, UniProt O44074+P92506+P92507); experiment: Complex II activity of A. suum mitochondrial fraction; assay type: biochemical
T1 construct: from tissue; host or cells: A. suum mitochondrial fraction
T1 sequence (O44074 22-282): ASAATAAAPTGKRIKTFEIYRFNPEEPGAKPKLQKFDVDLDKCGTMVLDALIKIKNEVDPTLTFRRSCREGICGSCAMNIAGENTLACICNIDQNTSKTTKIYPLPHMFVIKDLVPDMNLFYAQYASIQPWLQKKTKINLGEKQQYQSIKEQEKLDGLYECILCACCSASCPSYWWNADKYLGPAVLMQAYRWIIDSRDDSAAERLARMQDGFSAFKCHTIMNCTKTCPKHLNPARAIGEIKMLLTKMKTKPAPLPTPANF
T1 sequence (P92506 32-188): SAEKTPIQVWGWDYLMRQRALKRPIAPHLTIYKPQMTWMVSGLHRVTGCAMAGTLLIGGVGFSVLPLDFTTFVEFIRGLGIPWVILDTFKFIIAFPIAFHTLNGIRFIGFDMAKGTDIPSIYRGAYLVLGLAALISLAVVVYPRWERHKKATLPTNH
T1 sequence (P92507 26-156): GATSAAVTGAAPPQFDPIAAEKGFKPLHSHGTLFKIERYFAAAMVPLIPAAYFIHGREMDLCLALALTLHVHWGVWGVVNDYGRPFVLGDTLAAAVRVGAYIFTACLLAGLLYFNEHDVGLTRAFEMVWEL
T1 sequence (Q33862 19-645 partner): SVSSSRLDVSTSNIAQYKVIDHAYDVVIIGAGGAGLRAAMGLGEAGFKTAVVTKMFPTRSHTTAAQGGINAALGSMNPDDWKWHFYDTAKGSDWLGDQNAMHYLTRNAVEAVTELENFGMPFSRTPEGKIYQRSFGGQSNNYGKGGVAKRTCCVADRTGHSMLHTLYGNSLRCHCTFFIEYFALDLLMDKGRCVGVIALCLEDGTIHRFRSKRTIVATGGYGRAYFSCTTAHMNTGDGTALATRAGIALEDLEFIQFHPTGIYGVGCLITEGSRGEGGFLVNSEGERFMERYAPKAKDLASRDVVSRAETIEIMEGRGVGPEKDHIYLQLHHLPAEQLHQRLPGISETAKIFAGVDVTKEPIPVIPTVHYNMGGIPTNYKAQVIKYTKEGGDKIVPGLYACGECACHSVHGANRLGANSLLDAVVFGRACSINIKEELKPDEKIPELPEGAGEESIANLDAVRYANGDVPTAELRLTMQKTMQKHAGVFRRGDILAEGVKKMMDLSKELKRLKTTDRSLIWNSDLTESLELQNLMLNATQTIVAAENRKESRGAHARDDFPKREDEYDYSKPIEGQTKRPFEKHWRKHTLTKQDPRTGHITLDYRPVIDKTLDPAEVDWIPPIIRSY
Text: as §2, with “Next, the pellet was resuspended in mitochondrial preparation buffer (without malonate) and centrifuged at 8,000 × g for 10 min (4°C). The enriched mitochondrial fraction was finally suspended in approximately 0.5 to 1.0 mL of mitochondrial preparation buffer without malonate and frozen at −50°C. The mitochondrial fraction from A. suum was prepared essentially as described previously ([27], [28]).” left out
as §1, with “Briefly, all enzyme assays using mitochondrial fractions were performed in 0.5- or 1.0-mL reaction mixtures at 25°C. A freeze/thaw process was performed before the assay to ensure that the mitochondrial membrane was permeable to the solutes. The final mitochondrial protein concentration was 50 μg/mL.” left out

[4] = system: E. multilocularis protoscoleces; experiment: Ex vivo culture assay of live protoscoleces, viability by trypan blue exclusion; assay type: cell-based, Echinococcus multilocularis; conditions: 50 μM
Protocol: FIG 5 Viability of E. multilocularis protoscoleces in ex vivo culture assay. The E. multilocularis protoscoleces were treated with ascofuranone (AF) and its derivatives in culture under aerobic and anaerobic conditions (O2 <0.3%). Each compound was added to the culture medium at a final concentration of 50 μM. The control group was supplemented with 0.5% (vol/vol) dimethyl sulfoxide (DMSO). Atovaquone (ATV) was used as positive control and to ensure anaerobic conditions in the culture. The viability of protoscoleces was evaluated by their ability to exclude trypan blue. The data are presented as the mean ± standard deviation (n = 3).
The obtained protoscoleces were cultured in Connaught Medical Research Laboratories 1066 medium (Gibco, Grand Island, NY, USA) containing 0.5% (wt/vol) yeast extract (Difco Laboratories, Detroit, MI, USA), 2 mM L-glutamine (Gibco), 23 mM 4-(2-hydroxyethyl)-1-piperazineethanesulfonic acid, 0.5% (wt/vol) D (+)-glucose, 0.4 mM sodium taurocholate (Wako Pure Chemical Industries, Osaka, Japan), 57 mM sodium hydrogen carbonate, and 100 U/mL penicillin-streptomycin (Gibco). The protoscoleces were observed daily for seven consecutive days, and half of the medium was replaced on day 3. For anaerobic cultures, six-well plates were sealed in plastic containers with oxygen-detecting agents and oxygen scavengers (Aneromeito, Nissui Pharmaceutical, Tokyo, Japan) to keep the oxygen concentration below 0.3% at 37°C. The protoscoleces were treated with AF and its derivatives at a final concentration of 50 μM in the culture medium, and the duration of parasite elimination was investigated. The control group was supplemented with 0.5% (vol/vol) dimethyl sulfoxide (DMSO), and all conditions were assayed in triplicate. We used ATV in a culture assay as positive control and to ensure anaerobic conditions in the culture ([4], [5]). […] The viability of protoscoleces was determined after microscopic observation of more than 170 protoscoleces per well using the trypan blue exclusion test, as described previously ([4], [6], [33]).

[5] = molecular target: complex I and III (NADH:cytochrome c reductase) (Echinococcus multilocularis, UniProt Q9TE80); experiment: NADH:cytochrome c reductase activity (complex I to III) in protoscoleces mitochondrial fraction; assay type: biochemical; conditions: E. multilocularis protoscoleces mitochondria; mean ± SEM; Table 1; read-out: IC50 NADH:cytochrome c reductase (complex I and III)
Chain of complex I and III (NADH:cytochrome c reductase) (Q9TE80 entry or part of it): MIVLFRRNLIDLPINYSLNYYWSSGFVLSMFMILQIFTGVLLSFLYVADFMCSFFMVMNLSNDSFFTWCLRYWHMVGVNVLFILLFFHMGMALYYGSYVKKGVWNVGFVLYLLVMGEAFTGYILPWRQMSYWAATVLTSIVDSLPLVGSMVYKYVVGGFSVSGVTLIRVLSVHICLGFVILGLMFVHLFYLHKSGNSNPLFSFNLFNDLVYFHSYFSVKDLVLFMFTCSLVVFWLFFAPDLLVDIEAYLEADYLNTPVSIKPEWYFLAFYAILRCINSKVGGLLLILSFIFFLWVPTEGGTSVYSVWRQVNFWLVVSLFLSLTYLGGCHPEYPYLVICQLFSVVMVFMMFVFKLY
Chain of complex I and III (NADH:cytochrome c reductase) (Q9GP40 whole entry, further chain): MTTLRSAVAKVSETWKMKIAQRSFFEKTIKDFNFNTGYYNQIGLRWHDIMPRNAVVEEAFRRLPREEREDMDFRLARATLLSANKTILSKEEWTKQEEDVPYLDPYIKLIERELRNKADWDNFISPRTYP
Chain of complex I and III (NADH:cytochrome c reductase) (Q9TE76 entry or part of it, further chain): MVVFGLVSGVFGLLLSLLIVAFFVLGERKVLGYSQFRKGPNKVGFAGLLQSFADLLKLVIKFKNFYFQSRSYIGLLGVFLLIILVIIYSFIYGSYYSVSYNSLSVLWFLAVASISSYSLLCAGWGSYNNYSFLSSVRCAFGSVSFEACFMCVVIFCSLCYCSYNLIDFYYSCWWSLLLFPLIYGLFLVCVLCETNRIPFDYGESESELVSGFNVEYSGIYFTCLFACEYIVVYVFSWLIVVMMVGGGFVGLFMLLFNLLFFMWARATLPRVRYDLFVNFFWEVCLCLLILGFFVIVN
Text: as §2, §3

Q: `O=C1C(O)=C([C@H]2CC[C@H](c3ccc(Cl)cc3)CC2)C(=O)c2ccccc21` [ATV, Atovaquone, reference compound] was tested. Which IC50 [1] did it give?
A: The IC50 was 0.002 µM.

Q: What about the IC50 ([2]; IC50 against E. multilocularis complex II (SQR), figure legends, supplement) of the same molecule?
A: Its IC50 is 0.69 µM.

Q: For `CC(=O)c1cc(Cl)c(O)c(C/C=C(\C)CCC=C(C)C)c1O` [Compound D5], which IC50 [3] is on record?
A: The IC50 was > 50 µM.

Q: And the IC50 (A. suum complex II)?
A: Its IC50 is 11 µM.

Q: What about the “fold less potent inhibition of A. suum complex II than of E. multilocularis complex II” value (A. suum complex II; ratio of IC50 A. suum / E. multilocularis) of the same molecule?
A: Its value is 234 fold.

Q: And the “day of complete elimination of protoscoleces” value ([4]; aerobic culture)?
A: Its value is ≤ 6 days.

Q: And the “day of complete elimination of protoscoleces” value ([4]; anaerobic culture (O2 <0.3%))?
A: Its value is ≤ 5 days.

Q: And the “antiparasitic effect on protoscoleces in culture assay” value ([4]; both anaerobic and aerobic conditions)?
A: Its value is “strong antiparasitic effect”.

Q: What about the IC50 ([2]; IC50, inhibition of E. multilocularis SQR, Table 2, substitutions on the benzene group, mean ± SEM) of the same molecule?
A: Its IC50 is 0.047 ± 0.011 µM.

Q: And the IC50 ([2]; IC50 Succinate:quinone reductase (SQR) (complex II), E. multilocularis protoscoleces mitochondria, mean ± SEM, Table 1)?
A: Its IC50 is 0.047 ± 0.011 µM.

Q: And the IC50 [5]?
A: The IC50 was 0.221 ± 0.044 µM.

Q: Which results are given for `CC(C)(C)c1ccc(CNC(=O)c2ccccc2C(F)(F)F)cc1` [NN23, reference compound]?
A: IC50 (A. suum complex II; A. suum mitochondrial fraction, read-out: IC50 against A. suum complex II): 0.005 µM; IC50 ([2]; figure legends, supplement, read-out: IC50 against E. multilocularis complex II (SQR)): > 20 µM
